Data from EP0745595A1, “3-(3-Aryloxyphenyl)-1-(substituted methyl)-s-triazine-2,4,6-oxo or thiotrione herbicidal agents” (American Cyanamid Company, priority 1995, dated 1996).

Experiments:
Type in all cases: in vivo
[1] = system: ECHINOCHLOA CRUS-GALLI, (L) BEAU; assay: Postemergence herbicidal evaluation, ECHCG (Barnyardgrass); parameters: key to ECHCG rating / Herbicidal effect rating, ECHCG / ECHCG: 0-9 visual rating scale vs untreated control
Procedure, shortened: (§1)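 Each value is a 0–9 visual rating of plant appearance compared with control, recorded 4–5 weeks after a 0.125–0.500 kg/ha spray, with multiple tests averaged.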

IPOMOEA SPP. = assay: Postemergence herbicidal evaluation, IPOSS (Morningglory spp.)
Procedure, shortened: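 In this greenhouse postemergence herbicide test on Ipomoea spp. (morningglory), compounds in 50/50 acetone/water with 0.5% TWEEN®20 were sprayed at 40 psi onto seedlings about two weeks old grown in jiffy flats. After four to five weeks, injury was scored on a 0-9 scale covering stand, vigor, malformation, size, chlorosis and overall appearance versus control, with repeat tests averaged.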

CHENOPODIUM ALBUM, L. = assay: Postemergence herbicidal evaluation, CHEAL (Lambsquarters, Common)
Procedure, shortened: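 Postemergence herbicidal activity on Chenopodium album was tested by spraying two-week-old seedlings grown in jiffy flats with compound in acetone/water (50/50) plus 0.5% TWEEN®20, using a 40 psi nozzle. Four to five weeks after treatment, stand, vigor, malformation, size, chlorosis and overall appearance were scored 0-9 relative to controls, with repeat tests averaged.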

ZEA MAYS L. = assay: Postemergence herbicidal evaluation, ZEAMX (Corn, Field)
Procedure, shortened: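 This greenhouse postemergence test treated corn plants about two weeks old. Compounds in a 50/50 acetone/water mixture with 0.5% TWEEN®20 were applied through a spray nozzle at 40 psi. After four to five weeks, injury was scored 0-9 against an untreated control, judging stand, vigor, malformation, size, chlorosis and overall appearance. Repeated tests were averaged.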

[2] = system: TRITICUM AESTIVUM, CV. APOLLO; assay: Postemergence herbicidal evaluation, TRZAWO (Wheat, Winter, CV. APOLLO)
Procedure, shortened: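 This greenhouse postemergence test applied compounds to roughly two-week-old wheat seedlings grown in jiffy flats. The spray solution was 50/50 acetone/water with 0.5% TWEEN®20, a polyoxyethylene sorbitan monolaurate, sprayed from a nozzle run at 40 psi. After four to five weeks of standard greenhouse care, injury was scored from 0 to 9 by comparing stand, vigor, malformation, size, chlorosis and overall appearance with a control. Multiple tests were averaged.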

[3] = system: ORYZA SATIVA, L. TEBONNET; assay: Rice tolerance to post-transplant applications under flooded paddy conditions, ORYSAT (Rice, Tebonnet); conditions: post-transplant rice, rated three to four weeks after treatment;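 also: applied to flooded soil surface three days after transplanting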
Procedure, shortened: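 Greenhouse pots of silt loam, each with two transplanted ten-day-old seedlings, are held under 1.5 to 3 cm of standing water. Three days later the compound is applied to the flooded surface at about 0.5, 0.25, 0.125 or 0.063 kg/ha. Damage is scored visually 0-9 after 3-4 weeks.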

[4] = system: AMBROSIA ARTEMISIIFOLIA, L.; assay: Postemergence herbicidal evaluation, AMBEL (Ragweed, Common)
Procedure, shortened: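 Postemergence herbicidal activity on AMBEL (common ragweed) was assessed on two-week-old seedlings grown in jiffy flats. Treatment solutions of 50/50 acetone/water with 0.5% TWEEN®20 surfactant were sprayed at 40 psi. After four to five weeks in the greenhouse, plants were scored 0-9 against a control for stand, vigor, malformation, size, chlorosis and overall appearance, with multiple tests averaged.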

CASSIA OBTUSIFOLIA, L. = assay: Postemergence herbicidal evaluation, CASOB (Sicklepod); parameters: key to CASOB rating / Herbicidal effect rating, CASOB / CASOB: 0-9 visual rating scale vs untreated control; conditions: for CASOB, herbicide rating (0-9): rated four to five weeks after treatment, averaged
Procedure, shortened: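 Spray: acetone/water 50/50 + 0.5% TWEEN 20; rate ~0.125–0.500 kg/ha; nozzle 40 psi; ~2-wk seedlings. Read: visual 0–9 rating at 4–5 wk post-treatment vs control; replicate tests averaged.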

[5] = system: SETARIA VIRIDIS, (L) BEAU; assay: Postemergence herbicidal evaluation, SETVI (Foxtail, Green); parameters: key to SETVI rating / Herbicidal effect rating, SETVI / SETVI: 0-9 visual rating scale vs untreated control; conditions: for SETVI, herbicide rating (0-9): rated four to five weeks after treatment, averaged
Procedure, shortened: as §1

GALIUM APARINE = assay: Postemergence herbicidal evaluation, GALAP (Galium); parameters: key to GALAP rating / Herbicidal effect rating, GALAP / GALAP: 0-9 visual rating scale vs untreated control; conditions: for GALAP, herbicide rating (0-9): rated four to five weeks after treatment, averaged
Procedure, shortened: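 In this postemergence greenhouse test, two-week-old Galium aparine seedlings grown in jiffy flats received a 40 psi spray of compound in acetone/water (50/50) with 0.5% TWEEN®20 surfactant. After four to five weeks, stand, vigor, malformation, size, chlorosis and overall appearance were compared with untreated controls on a 0-9 scale, averaging multiple tests.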

[6] = system: ABUTILON THEOPHRASTI, MEDIC.; assay: Postemergence herbicidal evaluation, ABUTH (Velvetleaf); conditions: for ABUTH, herbicide rating (0-9): rated four to five weeks after treatment, averaged
Procedure, shortened: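 This postemergence herbicide test used two-week-old velvetleaf seedlings grown in jiffy flats. Each compound was sprayed at 40 psi as a dispersion in 50/50 acetone/water with 0.5% TWEEN®20 surfactant. Plants then received routine greenhouse care. After four to five weeks, injury was scored visually on a 0-9 scale against a control, and replicate tests were averaged.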

COC(=O)Cn1c(=O)n(C)c(=O)n(-c2cc(Oc3c(F)cc(C(F)(F)F)cc3Cl)ccc2Br)c1=O [Compound 2, Methyl 3-{2-bromo-5-[(2-chloro-α,α,α,6-tetrafluoro-p-tolyl)oxy]phenyl}tetrahydro-5-methyl-2,4,6-trioxo-s-triazine-1(2H)-acetate]
Herbicidal effect rating, ECHCG ([1]; 0.063 kg/ha): 5.0
Herbicidal effect rating, ECHCG ([1]; 0.125 kg/ha): 6.7
Herbicidal effect rating, ECHCG ([1]; 0.250 kg/ha): 9.0
Herbicidal effect rating, ECHCG ([1]; 0.500 kg/ha): 9.0
Herbicidal effect rating, IPOSS (IPOMOEA SPP.; 0.063 kg/ha): 8.3
Herbicidal effect rating, IPOSS (IPOMOEA SPP.; 0.125 kg/ha): 8.7
Herbicidal effect rating, IPOSS (IPOMOEA SPP.; 0.250 kg/ha): 9.0
Herbicidal effect rating, IPOSS (IPOMOEA SPP.; 0.500 kg/ha): 9.0
Herbicidal effect rating, CHEAL (CHENOPODIUM ALBUM, L.; 0.063 kg/ha): 8.8
Herbicidal effect rating, CHEAL (CHENOPODIUM ALBUM, L.; 0.125 kg/ha): 8.7
Herbicidal effect rating, CHEAL (CHENOPODIUM ALBUM, L.; 0.250 kg/ha): 8.5
Herbicidal effect rating, CHEAL (CHENOPODIUM ALBUM, L.; 0.500 kg/ha): 8.5
Herbicidal effect rating, ZEAMX (ZEA MAYS L.; 0.063 kg/ha): 7.7
Herbicidal effect rating, ZEAMX (ZEA MAYS L.; 0.125 kg/ha): 8.4
Herbicidal effect rating, ZEAMX (ZEA MAYS L.; 0.250 kg/ha): 8.3
Herbicidal effect rating, ZEAMX (ZEA MAYS L.; 0.500 kg/ha): 8.3
Herbicidal effect rating, TRZAWO ([2]; 0.063 kg/ha): 7.0
Herbicidal effect rating, TRZAWO ([2]; 0.125 kg/ha): 7.5
Herbicidal effect rating, TRZAWO ([2]; 0.250 kg/ha): 8.0
Herbicidal effect rating, TRZAWO ([2]; 0.500 kg/ha): 8.5
ORYSAT herbicidal rating (rice tolerance) ([3]; Rate 0.063 kg/ha): 2.5
ORYSAT herbicidal rating (rice tolerance) ([3]; Rate 0.125 kg/ha): 4.0
ORYSAT herbicidal rating (rice tolerance) ([3]; Rate 0.250 kg/ha): 5.5
ORYSAT herbicidal rating (rice tolerance) ([3]; Rate 0.500 kg/ha): 6.7
Herbicidal effect rating, AMBEL ([4]; 0.063 kg/ha): 8.0
Herbicidal effect rating, AMBEL ([4]; 0.125 kg/ha): 7.3
Herbicidal effect rating, AMBEL ([4]; 0.250 kg/ha): 7.5
Herbicidal effect rating, AMBEL ([4]; 0.500 kg/ha): 8.0
Herbicidal effect rating, CASOB (CASSIA OBTUSIFOLIA, L.; 0.063 kg/ha): 9.0
Herbicidal effect rating, CASOB (CASSIA OBTUSIFOLIA, L.; 0.125 kg/ha): 9.0
Herbicidal effect rating, CASOB (CASSIA OBTUSIFOLIA, L.; 0.250 kg/ha): 9.0
Herbicidal effect rating, CASOB (CASSIA OBTUSIFOLIA, L.; 0.500 kg/ha): 9.0
CASOB, herbicide rating (0-9) (CASSIA OBTUSIFOLIA, L.; Rate 0.125 kg/ha): 9.0
CASOB, herbicide rating (0-9) (CASSIA OBTUSIFOLIA, L.; Rate 0.250 kg/ha): 9.0
CASOB, herbicide rating (0-9) (CASSIA OBTUSIFOLIA, L.; Rate 0.500 kg/ha): 9.0
Herbicidal effect rating, SETVI ([5]; 0.063 kg/ha): 7.5
Herbicidal effect rating, SETVI ([5]; 0.125 kg/ha): 9.0
Herbicidal effect rating, SETVI ([5]; 0.250 kg/ha): 9.0
Herbicidal effect rating, SETVI ([5]; 0.500 kg/ha): 9.0
SETVI, herbicide rating (0-9) ([5]; Rate 0.125 kg/ha): 9.0
SETVI, herbicide rating (0-9) ([5]; Rate 0.250 kg/ha): 9.0
SETVI, herbicide rating (0-9) ([5]; Rate 0.500 kg/ha): 9.0
Herbicidal effect rating, GALAP (GALIUM APARINE; 0.063 kg/ha): 9.0
Herbicidal effect rating, GALAP (GALIUM APARINE; 0.125 kg/ha): 9.0
Herbicidal effect rating, GALAP (GALIUM APARINE; 0.250 kg/ha): 9.0
Herbicidal effect rating, GALAP (GALIUM APARINE; 0.500 kg/ha): 9.0
GALAP, herbicide rating (0-9) (GALIUM APARINE; Rate 0.125 kg/ha): 9.0
GALAP, herbicide rating (0-9) (GALIUM APARINE; Rate 0.250 kg/ha): 9.0
GALAP, herbicide rating (0-9) (GALIUM APARINE; Rate 0.500 kg/ha): 9.0
Herbicidal effect rating, ABUTH ([6]; 0.063 kg/ha): 8.8
Herbicidal effect rating, ABUTH ([6]; 0.125 kg/ha): 9.0
Herbicidal effect rating, ABUTH ([6]; 0.250 kg/ha): 9.0
Herbicidal effect rating, ABUTH ([6]; 0.500 kg/ha): 9.0
ABUTH, herbicide rating (0-9) ([6]; Rate 0.125 kg/ha): 9.0
ABUTH, herbicide rating (0-9) ([6]; Rate 0.250 kg/ha): 9.0
ABUTH, herbicide rating (0-9) ([6]; Rate 0.500 kg/ha): 9.0
